The values that follow are results of earlier work, collected in US20070092573A1, “STABILIZED EXTENDED RELEASE PHARMACEUTICAL COMPOSITIONS COMPRISING A BETA-ADRENORECEPTOR ANTAGONIST” (priority 2005, published 2007).

SMILES strings stand for the structures.

`COCCc1ccc(OCC(O)CNC(C)C)cc1` (stereo not shown) [Metoprolol Succinate]: the water solubility entry is reported as “highly water-soluble”.
